What was measured:
[1] = Proton exchange pKA of probe; format: physicochemical; details: dynamic proton exchange of the probe
Experimental: (§1) Displacement of Mn^2+ from RNA by RSG1.2, or neomycin b: Binding of RSG1.2 and neomycin b to each of the hairpins was studied at [RNA] between 20 and 30 μM, and again at [RNA]˜3 μM. The higher concentration studies were performed in a manner identical to that described above for the Mg^2+ exchange reactions. For the low concentration studies, HPO3^2− (20 mM) was used as the probe ion. Reactions were run in 10 mM PIPES buffer, with 45 mM KCl and [Mn^2+] between 50 and 150 nM. The pH of the samples was maintained at 7.8 in these experiments. Studies utilizing HPO3^2− are impractical at lower pH where the probe undergoes dynamic proton exchange (pKA=6.0) leading to significant shortening of the diamagnetic ^31P T2.

[2] = system: 27-nt A-site RNA construct; assay: Displacement of Mn2+ from RNA by neomycin (probe 31P relaxation); format: binding
Experimental: The ^31P T2 was measured for each sample by varying the length (number of pulses) of the CPMG portion of the pulse sequence in FIG. 2 and determining the effect of this change on the intensity (i) of the signals. […] The dl delay was typically 5 to 20 seconds, and delays in the inept and reverse inept parts of the sequence were set to a value equal to 1/4J, where J is the ^1H—^31P coupling constant. Delays between pulses in the CPMG train varied from 50 to 500 microseconds.
The data shown in FIG. 9 were most consistent with a model where three neomycin molecules were bound to each RNA molecule with subsequent release of Mn^2+.
(§2) Mn^2+ binding by RNA constructs, and its displacement by either K^+ or Mg^2+. Samples containing MeOPH (5 mM) and PIPES buffer (5 mM, pH=7.2), and 3 μM Mn^2+ were titrated with each RNA. The ^31P transverse relaxation rates (R2=1/T2) of the probe in the resulting solutions were measured. Plots of R2 versus [RNA] were prepared. The effects of [K^+] and [Mg^2+] on Mn^2+ binding were determined by titrating similar solutions containing buffer, MeOPH, Mn^2+ and one of the RNAs (10 to 30 μM) with solutions of either KCl or MgCl2, and monitoring the relaxation rate of the probe as a function of cation concentration. The effects of [K^+] were studied over the range of 12.5 to 150 mM ([…] K^+ is reportedly 140 mM). Mn^2+ displacements from each of the hairpins by Mg^2+, neomycin b, and RSG1.2 were studied in the absence of added KCl and with sufficient KCl added to bring the total [K^+] to 100 mM.
as §1, with “Studies utilizing HPO3^2− are impractical at lower pH where the probe undergoes dynamic proton exchange (pKA=6.0) leading to significant shortening of the diamagnetic ^31P T2.” left out

[3] = system: another RRE1 model; details: cited from earlier work
[4] = system: RRE1; assay: Displacement of Mn2+ from RNA by neomycin b (probe 31P relaxation); format: binding; details: each condition studied
Experimental: as §2
as §1, with “The pH of the samples was maintained at 7.8 in these experiments. Studies utilizing HPO3^2− are impractical at lower pH where the probe undergoes dynamic proton exchange (pKA=6.0) leading to significant shortening of the diamagnetic ^31P T2.” left out

[5] = system: RRE2; assay: as above; format: binding; details: each condition studied
Experimental: as §2
as §1, with “The pH of the samples was maintained at 7.8 in these experiments. Studies utilizing HPO3^2− are impractical at lower pH where the probe undergoes dynamic proton exchange (pKA=6.0) leading to significant shortening of the diamagnetic ^31P T2.” left out

O=[PH](O)O [HPO3^2−, phosphite dianion]
pKA [1]: 6.0

NC[C@@H]1O[C@H](O[C@H]2[C@@H](O)[C@H](O[C@@H]3[C@@H](O)[C@H](N)C[C@H](N)[C@H]3O[C@H]3O[C@H](CN)[C@@H](O)[C@H](O)[C@H]3N)O[C@@H]2CO)[C@H](N)[C@@H](O)[C@@H]1O [neomycin, neomycin b]
neomycin molecules bound to each RNA molecule ([2]; RNA 27 μM, Mn^2+ 16 μM (Example 11)): three | equivalents of neomycin bound ([2]; [RNA]=2.7 μM, 100 mM K^+): single equivalent | equivalents of neomycin bound ([2]; [RNA]=27 μM (Example 16, data not shown)): 3 | equivalents of neomycin b bound [3]: three | equivalents of neomycin bound [4]: multiple equivalents | equivalents of neomycin bound [5]: multiple equivalents

— patent publication US7037660B2, “Methods for detecting and quantifying binding and inhibition of binding of species to nucleic acids” (Message Pharmaceuticals, priority 2001, dated 2006)
